{"source": "paper PMC2719696", "about": "“Kinetics and Cellular Site of Glycolipid Loading Control the Outcome of Natural Killer T Cell Activation” (Immunity, 2009)", "system": "detergent-resistant membrane microdomains", "assay": "Flow cytometry assay of αGalCer-mCD1d complex association with detergent-resistant membrane microdomains (JAWS II cells)", "type": "cell-based, mouse", "conditions": "0.1% Triton X-100", "procedure": "The scale bar represents 10 μm. Results shown for individual cells were typical of >20 cells analyzed for each parameter with or without incubation with the indicated glycolipids. (B) Quantitation of colocalization shown in (A) for multiple randomly selected individual cells. Pearson correlation coefficient for the distribution of pixel densities for K253 or L363 fluorescence compared to cholera toxin B-specific fluorescence are plotted for each individual cell analyzed. Values for p were determined by one-way ANOVA. (C) Flow cytometry assay for αGalCer-mCD1d complex association with detergent-resistant membrane microdomains. […] Baseline fluorescence levels were recorded for 15 s, after which Triton X-100 was added to 0.1% (arrow) and recording was resumed for another ∼60 s. Each symbol indicates mean fluorescence intensity (MFI) averaged over 1 s of recording. […]\nAnother property of lipid rafts is their resistance to solubilization by nonionic detergents due to their enrichment in cholesterol, sphingomyelin, and saturated acyl chains ([Pike, 2008]). To assess the localization of αGalCer-mCD1d complexes in detergent insoluble microdomains, we used a flow-cytometry-based assay that quantitates the resistance of lipid-raft-associated transmembrane proteins to extraction by low concentrations of Triton X-100 ([Gombos et al., 2004a; Peng et al., 2007]). […]", "data": [{"smiles": "CCCCCCCCCCCCCCC(O)C(O)C(COC1OC(CO)C(O)C(O)C1O)NC(=O)CCCCCCCCC", "note": "(centres unmarked) [αGalCer-C10:0]", "values": [{"measurement": "extraction of mCD1d complexes (L363 staining) by detergent, in words", "value": "mainly localized to detergent soluble nonraft domains"}]}, {"smiles": "CCCCCC=CCC=CCCCCCCCCCC(=O)NC(COC1OC(CO)C(O)C(O)C1O)C(O)C(O)CCCCCCCCCCCCCC", "note": "(centres unmarked) [αGalCer-C20:2]", "values": [{"measurement": "extraction of mCD1d complexes (L363 staining) by detergent, in words", "value": "significant extraction by detergent"}]}]}
